For one experiment, the system named is MCF-10A. Description: Cytotoxicity against human MCF-10A cells assessed as inhibition of cell proliferation measured after 72 hrs by CCK-8 assay. The experiment is classed as cell-based. On the technique in general: Tetrazolium dyes change colour on reduction, which living cells bring about.
The next experiment deals with MCF7. Description: Antiproliferative activity against human MCF7 cells assessed as inhibition of cell proliferation measured after 72 hrs by CCK-8 assay. The experiment is classed as functional, cell-based. The settings on record: MCF7, 72 h.
In another experiment the test system is MDA-MB-231. Description: Antiproliferative activity against human MDA-MB-231 cells assessed as inhibition of cell proliferation measured after 72 hrs by CCK-8 assay. It counts as functional, cell-based. The following applies: MDA-MB-231, 72 h.

Where only a bound is given, the exact number is not on record here.

On to `COc1ccc(-c2nc(COC(=O)[C@H](Cc3ccc(N(CCCl)CCCl)cc3)NC=O)cc3c2[nH]c2ccccc23)cc1`, for which the half-maximal inhibitory concentration (IC50) (usually the concentration needed to halve the response being measured) was 31.9 µM in the experiment on MCF-10A, 4.23 µM in the experiment on MCF7 and 5.72 µM in the experiment on MDA-MB-231.
`COc1cccc2c1C(=O)c1c(O)c3c(c(O)c1C2=O)C[C@@](O)(C(=O)CO)C[C@@H]3O[C@H]1C[C@H](N)[C@H](O)[C@H](C)O1` [DOXORUBICIN]: in the experiment on MDA-MB-231, the IC50 turned out to be 2.76 µM.
Take `Cc1nc(COC(=O)c2ccc(N(CCCl)CCCl)cc2)cc2c1[nH]c1ccccc12`: the IC50 in the experiment with MCF-10A amounted to 26.4 µM; in the experiment with MCF7, 3.78 µM; in the experiment with MDA-MB-231, 7.48 µM.
As for `COc1ccc(-c2nc(CO)cc3c2[nH]c2ccccc23)cc1`, the IC50 was more than 40 µM in the experiment on MCF-10A, 15.8 µM in the experiment on MCF7 and more than 20 µM in the experiment on MDA-MB-231.
For `COC(=O)[C@H](Cc1ccc(N(CCCl)CCCl)cc1)NC(=O)CCCC(=O)OCc1cc2c([nH]c3ccccc32)c(-c2ccc(OC)cc2)n1` the same measures were more than 40 µM, more than 20 µM and more than 20 µM.
The like results for `COC(=O)[C@H](Cc1ccc(N(CCCl)CCCl)cc1)NC(=O)CCCC(=O)OCc1cc2c([nH]c3ccccc32)c(C)n1` were, in that order, more than 40 µM, more than 20 µM and more than 20 µM.
With `Cc1nc(COC(=O)[C@H](Cc2ccc(N(CCCl)CCCl)cc2)NC(=O)OC(C)(C)C)cc2c1[nH]c1ccccc12`, the IC50 in the experiment on MCF-10A was more than 40 µM; in the experiment on MCF7, 4.9 µM; with MDA-MB-231, 17.5 µM.
Take `O=C(OCc1cc2c(cn1)[nH]c1ccccc12)c1ccc(N(CCCl)CCCl)cc1`: the IC50 in the experiment with MCF-10A is more than 40 µM; with MCF7 it was 2.31 µM; in the experiment with MDA-MB-231 it was 9.65 µM.
As to `COc1ccc(-c2nc(COC(=O)[C@H](Cc3ccc(N(CCCl)CCCl)cc3)NC(=O)OC(C)(C)C)cc3c2[nH]c2ccccc23)cc1`, the IC50 with MCF-10A is more than 40 µM; with MCF7, 5.31 µM; with MDA-MB-231, 19.6 µM.
The like results for `OCc1cc2c(cn1)[nH]c1ccccc12` were, in that order, more than 40 µM, more than 20 µM and more than 20 µM.

For the origin of these results see ChEMBL document CHEMBL4834486 (Bioorg Med Chem, 2021).
